Measurements reported in patent US9511010B2, “Compounds useful in the treatment and/or care of the skin, hair and/or mucous membranes and their cosmetic or pharmaceutical compositions” (Lubrizol Advanced Materials, Inc., priority 2012, dated 2016).

Experiments:
FOXO response elements = assay: Stimulation of the expression of proteins regulated by FOXO: luciferase reporter under FOXO response elements; type: cell-based, human; conditions: 0.5 mg/mL, 24 hours; carrier (0.05% DMSO) = 100
Description: The activation capacity of the FOXO response elements was evaluated in a human epithelial cell line stably transfected with the luciferase gene under the control of a regulatory sequence which contains different FOXO response elements which are in the promoters of the FOXO target genes. The activation capacity of the FOXO response elements indicates the expression of proteins regulated by FOXO. 30,000 cells per well were seeded in a total volume of 100 μL of RPMI 1640 culture medium. After 24 hours the cells with RPMI 1640 culture medium were washed and were incubated with the compounds of the invention at 0.5 mg/mL for 24 hours in a total volume of 100 μL per well. The carrier in which the compounds of the invention were dissolved was used (0.05% DMSO) as a negative control.
The measurement of the activity of the promoter was carried out using the Steady-Go Luciferase Assay System kit following the manufacturer's instructions. The luminescence values (RLU/sec) caused by the reaction between luciferase and the substrate were quantified with a luminometer and normalized by the cell number (absorbance at 630 nm), and the activity of the promoter was determined, which was standardized with regard to the negative control values.
(§1) Each experiment was carried out three times in 3 independent experiments.

[1] = test system: HEKa primary keratinocytes; assay: Host cell reactivation (HCR) assay, activation of DNA repair in primary keratinocytes; type: cell-based, human; conditions: 24 hours, basal = 100
Description: The host cell reactivation (HCR) assay was used in HEKa primary keratinocytes to evaluate the capacity of the peptides of the invention to repair the damage to the DNA in a biologically functional way. 40,000 cells per well were seeded and they were co-transfected with a control plasmid which constitutively expresses the Firefly luciferase gene (pGL3), previously damaged by UVC, and with an undamaged plasmid which constitutively expresses the Renilla luciferase gene (vector pRluc-N1(h)).
Subsequently the cells were incubated with the compounds of the invention at 0.025 mg/mL and 0.5 mg/mL in EpiLife medium for 24 hours, after which the luminescence due to the activity of the Firefly and Renilla luciferases was measured using the Dual-Go Luciferase Assay System kit following the manufacturer's instructions. The carrier in which the compounds of the invention (EpiLife medium) were dissolved was used as a negative control. The activation percentage of the DNA repair for each sample was calculated standardizing the luminescence values of the Firefly luciferase with regard to the Renilla luciferase, subsequently standardizing with regard to the values of the negative control.
as §1

Stimulation Average (%) of the activation of the FOXO response factors (FOXO response elements) [%]	Substance	Activation Average (%) of DNA repair, HCR assay ([1]; 0.025 mg/mL) [%]	Activation Average (%) of DNA repair, HCR assay ([1]; 0.5 mg/mL) [%]
106	Ac-L-Tyr-L-Asn-L-Lys-L-Lys-L-Gln-L-Val-NH2 (Ac-YNKKQV-NH2) [Ac-SEQ ID NO: 8-NH2]	–	–
131	Ac-L-Tyr-L-Glu-L-Pro-L-His-L-Gln-L-Val-NH2 (Ac-YEPHQV-NH2) [Ac-SEQ ID NO: 40-NH2]	–	–
120	Ac-L-Tyr-L-Tyr-L-Pro-L-His-L-Gln-L-Val-NH2 (Ac-YYPHQV-NH2) [Ac-SEQ ID NO: 29-NH2]	–	–
119	Ac-L-Tyr-L-Glu-L-Ser-Gly-L-Gln-L-Val-NH2 (Ac-YESGQV-NH2) [Ac-SEQ ID NO: 16-NH2]	–	–
128	Ac-L-Tyr-L-Asn-L-Ser-L-Lys-L-Gln-L-Val-NH2 (Ac-YNSKQV-NH2) [Ac-SEQ ID NO: 27-NH2]	–	–
143	Ac-L-Tyr-L-Asn-L-Lys-Gly-L-Gln-L-Val-NH2 (Ac-YNKGQV-NH2) [Ac-SEQ ID NO: 1-NH2]	150	290
168	Ac-L-Tyr-L-His-L-Lys-L-Leu-L-Gln-L-Val-NH2 (Ac-YHKLQV-NH2) [Ac-SEQ ID NO: 25-NH2]	–	–
145	Ac-L-Tyr-L-Glu-L-Ser-L-His-L-Gln-L-Val-NH2 (Ac-YESHQV-NH2) [Ac-SEQ ID NO: 19-NH2]	191	304
125	Ac-L-Tyr-L-His-L-Pro-L-His-L-Gln-L-Val-NH2 (Ac-YHPHQV-NH2) [Ac-SEQ ID NO: 28-NH2]	–	–
174	Ac-L-Tyr-L-Tyr-L-Lys-L-Leu-L-Gln-L-Val-NH2 (Ac-YYKLQV-NH2) [Ac-SEQ ID NO: 23-NH2]	–	–
157	Ac-L-Tyr-L-Tyr-L-Ser-L-His-L-Gln-L-Val-NH2 (Ac-YYSHQV-NH2) [Ac-SEQ ID NO: 20-NH2]	–	–
138	Ac-L-Tyr-L-His-L-Ser-L-His-L-Gln-L-Val-NH2 (Ac-YHSHQV-NH2) [Ac-SEQ ID NO: 30-NH2]	–	–
133	Ac-L-Tyr-L-Tyr-L-Pro-L-Lys-L-Gln-L-Val-NH2 (Ac-YYPKQV-NH2) [Ac-SEQ ID NO: 42-NH2]	–	–
148	Ac-L-Tyr-L-Asn-L-Pro-L-His-L-Gln-L-Val-NH2 (Ac-YNPHQV-NH2) [Ac-SEQ ID NO: 18-NH2]	–	–
129	Ac-L-Tyr-L-Asn-L-Ser-L-His-L-Gln-L-Val-NH2 (Ac-YNSHQV-NH2) [Ac-SEQ ID NO: 41-NH2]	–	–
157	Ac-L-Tyr-L-Asn-L-Lys-L-Leu-L-Gln-L-Val-NH2 (Ac-YNKLQV-NH2) [Ac-SEQ ID NO: 21-NH2]	231	357
133	Ac-L-Tyr-L-Glu-L-Ser-L-Lys-L-Gln-L-Val-NH2 (Ac-YESKQV-NH2) [Ac-SEQ ID NO: 24-NH2]	295	271
124	Ac-L-Tyr-L-His-L-Ser-L-Lys-L-Gln-L-Val-NH2 (Ac-YHSKQV-NH2) [Ac-SEQ ID NO: 26-NH2]	–	–
